Measurements from US20260103479A1, “PRODRUGS OF OPICAPONE” (BIAL- PORTELA & CA, S.A., priority 2022, published 2026).
≈ marks a conversion by molar mass, not a printed value.

Tests used:
physchem = conditions: water, thermodynamic from solid
Protocol: (§1) The solubility studies were completed at room temperature. For the determination of the solubility increasing amounts of distilled water was added to 5 mg of the test sample until its complete dissolution of the product observed by naked eye.

[1] = Intravenous pharmacokinetics in rats; format: in vivo, male Wistar rats; conditions: i.v. 1 mg/kg; for opicapone pharmacokinetic profile after intravenous prodrug (comparison): FIG. 4b; for AUC(0-t): read-out: AUClast of prodrug; for half-life: read-out: t1/2 of prodrug (converted); for Vd / clearance: plasma; for clearance: read-out: CL of prodrug (converted)
Protocol: The pharmacokinetic properties of compounds 1 and 4 compared to micronized crystalline opicapone were assessed by intravenous injection to 3 male Wistar rats (1 mg/kg; DMSO:20% HPBCD (1:9).
During the studies, blood was collected at different time points, from jugular vein, spun at 1500×g in a refrigerated centrifuge (4° C.) for 15 min, and the plasma obtained was stored at −80° C. until further analysis. The plasma samples collected were analysed for compound 1, compound 4 and opicapone exposure. The bioanalysis involved the use of LC-MS/MS after plasma precipitation.

[2] = In vitro stability in human liver S9 fraction; format: in vitro ADME; conditions: 1 μM; S9 1 mg/mL; after 0.75 h
Protocol: The stability of 1 μM of compound 1 was assessed in the following fractions: phosphate buffer, human plasma, rat plasma, human liver S9 fraction, rat liver S9 fraction and rat liver homogenates.
Reaction was initiated by adding of 1 μM of test compound to the desired matrix (plasma, liver homogenate at 0.4 g/mL or S9 fraction at 1 mg/mL, respectively), with a final volume of 350 μL. At the following time points 0, 5, 15, 30, 45, 60 min, 50 μL of sample is taken and precipitated with 200 μL of acetonitrile 1% formic acid containing the internal standard (opicapone ^13C6) at 1 μM. Samples were centrifuged at 20,000 g at 4° C. for 10 min, and then analysed by LC-MS/MS using a bioanalytical method previously developed in-house.
The stability of 1 μM of compound 4 was assessed in the following fractions: phosphate buffer, human plasma, rat plasma, human liver S9 fraction, rat liver S9 fraction and rat liver homogenates.
Reaction was initiated by adding 1 μM of test compound to the desired matrix (plasma or S9 fraction at 1 mg/mL), with a final volume of 250 μL. […] Samples were centrifuged at 20,000 g at 4° C. for 10 min, and then analysed by LC-MS/MS using bioanalytical methods previously developed in-house. […]

[3] = Long-term stability studies in the solid state; format: physicochemical
[4] = Aqueous solubility in distilled (pure) water at room temperature; conditions: thermodynamic from solid
Protocol: as §1

L-DOPA metabolism = test: Subcutaneous pharmacodynamics: impact on L-DOPA and 3-OMD plasma levels; format: in vivo, male Wistar rats; conditions: s.c. 3 mg/kg with 12 mg/kg L-DOPA plus 3 mg/kg benserazide vs without compound; rat
Protocol: As proof-of-concept, the effects of compound 4 on L-DOPA metabolism was evaluated in 4 male Wistar rats. Animals were subcutaneously injected with a single formulation (in DMSO:PEG 400:30% SBEBCD (1:2:2)) containing 12 mg/kg of L-DOPA plus 3 mg/kg of benserazide with or without 3 mg/kg of compound 4. Plasma samples were collected as described above and analyzed for levels of L-DOPA and its metabolite 3-O-methyldopa (3-OMD).

[5] = male, Wistar, iv, rat plasma, analyte prodrug
[6] = male, Wistar, iv, rat, analyte prodrug

SMILES | solubility (physchem) | intravenous pharmacokinetic properties of the prodrug (comparison) ([1]; rat, FIG. 4a) | opicapone pharmacokinetic profile after intravenous prodrug (comparison) ([1]; rat) | C0 [1, 5] | AUC(0-t) [1, 5] | half-life [1, 5] | Vd [1, 6] | clearance [1, 6] | stability in human liver S9 fraction [2] | long-term stability in the solid state [3] | Tmax [1, 5] | solubility [4] | increase in the AUClast of circulating L-DOPA (L-DOPA metabolism) | levels of L-DOPA metabolite 3-OMD (L-DOPA metabolism)
Cc1c(Cl)c(C)[n+]([O-])c(Cl)c1-c1noc(-c2cc(OP(=O)(O)O)c(O)c([N+](=O)[O-])c2)n1 [Compound 1, 2,5-dichloro-3-(5-(4-hydroxy-3-nitro-5-(phosphonooxy)phenyl)-1,2,4-oxadiazol-3-yl)-4,6-dimethylpyridine 1-oxide] | 6000 µg/mL (≈ 12.2 mM) | improved pharmacokinetic properties compared to compound 4 | comparable to opicapone itself | 29400 ng/mL | 30700 ng·h/mL | 2.6 h | 0.123 L/kg | 0.643 mL/min/kg | stable |  |  |  |  | 
Cc1c(Cl)c(C)[n+]([O-])c(Cl)c1-c1noc(-c2cc(OCOP(=O)(O)O)c(O)c([N+](=O)[O-])c2)n1 [Compound 4, 2,5-dichloro-3-(5-(4-hydroxy-3-nitro-5-((phosphonooxy)methoxy)phenyl)-1,2,4-oxadiazol-3-yl)-4,6-dimethylpyridine 1-oxide] |  |  | worse intravenous pharmacokinetic parameters | 21900 ng/mL | 4990 ng·h/mL | 2.9 h | 1.99 L/kg | 3.58 mL/min/kg | stable | particularly stable | 4.8 min | > 500 µg/mL | 1.7 fold | decrease
